Measurements: patent US9096882B2, “Method of selecting antioxidants for use in topically applied compositions” (MSD Consumer Care, Inc., priority 2008, dated 2015)

What was measured:
[1] = DPPH (α,α-diphenyl-β-picrylhydrazyl) free radical test; type: biochemical; conditions: 20 min, 30° C., absorbance 517 nm
Method: DPPH is a stable free radical that when dissolved in solution forms an intense purple color. […] The extent to which the color fades can be easily measured and used to rank the relative effectiveness of different materials purported to have antioxidant properties.
Measurements were recorded for antioxidant raw materials in simple methanol solutions. Samples were prepared by dissolving antioxidants at various concentrations in methanol. After sample preparation, 125 μl of the sample or pure methanol as a control were pipetted into sample test tubes followed by 2 ml of methanol and vortexed. Then 2 ml of DPPH stock solution (0.25 mM in methanol) was added to each tube (giving a total volume of 4.125 ml for each sample) and vortexed. Immediately after addition of DPPH, test tubes were covered and placed into a 30° C. water bath for 20 minutes. After the 20 minute incubation, the absorbance of each sample was recorded at 517 nm using a Perkin Elmer Lambda 40 spectrophotometer. All samples were prepared in triplicate and their mean absorbance values were used to express the efficacy of antioxidants at various concentrations in terms of antioxidant reducing units (ARU) by using the following equation: ARU=(Absorbance Methanol Control−Absorbance sample)×10 ARU values range in magnitude from 0 for “no” efficacy to about 15 for raw materials that have high antioxidant efficacy.

[2] = test system: UV-induced ROS in EpiDerm™ Skin Model (human-derived epidermal keratinocytes); experiment: Two photon fluorescence microscopy on EpiDerm Skin Model (UV-induced ROS down to the basal layer); type: cell-based; conditions: result in words (FIG. 4)
Method: Two photon fluorescence microscopy was then conducted on a formulation containing Vitamin E and Emblica to determine ability to inhibit formation of ROS. The methods used were similar to those as described above, using confocal microscopy to visualize cells at different depths within intact pieces of skin and then fluorescence to quantify the extent of ROS formation. In the present experiment, however, instead of using human breast skin, the skin used was the EpiDerm™ Skin Model (MatTek Corporation, Mass. USA), which consists of normal, human-derived epidermal keratinocytes which have been cultured to form a multilayered, highly differentiated model of the human epidermis. […]
Prior to UVR exposure, pieces of EpiDerm™ skin were treated with dihydrorhodamine, which partitions throughout the aqueous and lipid regions of the tissue. […] The fluorescence is subsequently detected and quantified to provide an indication of the level of UV-induced ROS formed in deeper layers of the skin. By applying antioxidants topically before irradiation ROS formation can be measured and compared to the ROS formed after a placebo lotion without antioxidants was applied to the skin. In this way, the efficacy of antioxidants to neutralize ROS within deeper layers of the skin can be measured and their relative efficiencies established. […]

[3] = test system: human skin lipids; experiment: Ex vivo tape strip method: inhibition of UVR-induced lipid peroxidation (LOOH); type: biochemical; conditions: for % Inhibition of LOOH: tape strips irradiated 10 joules/cm^2 UVR, vs placebo lotion
From the text: To determine if antioxidants (Aox) maintain their effectiveness on skin in the presence of UVR, we devised a novel and more relevant model that utilizes human skin lipids as substrates for UVR-induced peroxidation. Lipids removed from skin on broad pieces of tape serve as the substrates for subsequent exposure to UVR. By applying a standard lotion with or without Aox to skin prior to tape-stripping, skin lipids can be collected on tape strips in the presence or absence of Aox that essentially maintains the same proximity that lipids and Aox had on skin. Following UVR exposure, the extent to which the presence of Aox protect lipids against peroxidation from ROS can be measured relative to lipids in the absence of antioxidants.
Human volunteers were recruited for the test and asked not to apply any products to their arms for at least two days before the test Prior to any product treatments, inner aspects of subjects' left and right forearms were wiped with a Kimwipe™ moistened with isopropanol to remove any residues that might be on the surface of the skin. Arms were wiped only once applying gentle pressure and then allowed to dry at least 10 minutes before proceeding. A template (90 mm×50 mm) was positioned on each inner forearm such that two areas could be clearly delineated. Using a superfine tip Sharpie™ pen, a mark was placed at each corner of the template to outline each application site, with two sites delineated per forearm. Using a fingercot, either placebo or antioxidant lotion was applied (100 mg) to a delineated site on a forearm. Care was taken to insure that products were applied evenly within the entire application area. After application, sites were allowed to air-dry for 30 minutes during which subjects were instructed not to allow any clothing to come into contact with test areas.
After lotions dried for 30 minutes, each site was tape-stripped using a 4.0 inch piece of Scotch® Brand No. 800 Prescription Label tape (1.5 inches wide). […] The piece of tape was positioned over a site and then using a finger the tape was gently pressed onto the skin to make good contact. […]
Each tape extract was assayed for total LOOH content using a Lipid Hydroperoxide Assay Kit (Kamiya Biomedical Company, Thousand Oaks, Calif.) following manufacturer's directions. Lipid hydroperoxides were then quantitated by measuring methylene blue formation at 675 nm using a spectrophotometer. Standard curves were prepared using cumene hydroperoxide and were linear over the range of LOOH detected in these experiments. […]
The extent to which antioxidant (Aox) or placebo lotions inhibited UVR-induced lipid hydroperoxide (LOOH) formation was calculated by inserting the values of LOOH determined from the four application sites on each volunteer into the following equation: […]

SMILES: CC1(C)CC[C@]2(C(=O)O)CC[C@]3(C)C(=CC[C@@H]4[C@@]5(C)C[C@@H](O)[C@H](O)[C@@](C)(CO)[C@@H]5CC[C@]43C)[C@@H]2C1 [Arjunolic acid (1%), Arjunolic acid]
- ARU (antioxidant reducing units) ([1]; level 1.0% in methanol): 0.4 ARU

SMILES: CCCCC(CC)COC(=O)C(=Cc1cc(OC)c(O)c(OC)c1)C(=O)OCC(CC)CCCC (stereo not shown) [Diethylhexyl syringylidene malonate]
- ARU (antioxidant reducing units) ([1]; level 1.0% in methanol): 5.7 ARU
- antioxidant or pro-oxidant behaviour within skin exposed to UVR [2]: maintains its antioxidant capability

SMILES: C[N+](C)(C)[C@@H](Cc1c[nH]c(=S)[nH]1)C(=O)[O-] [Ergothiotaine]
- ARU (antioxidant reducing units) ([1]; level 0.1% in methanol): 0.0 ARU

SMILES: Cc1c(C)c2c(c(C)c1O)CCC(C)(CCCC(C)CCCC(C)CCCC(C)C)O2 (stereo not drawn) [Vitamin E, dl alpha tocopherol]
- ARU (antioxidant reducing units) ([1]; level 0.5% in methanol): 6.5 ARU
- % Inhibition of LOOH ([3]; 0.05% in lotion): −3.40%
- % Inhibition of LOOH ([3]; 0.10% in lotion): 28.4%
- % Inhibition of LOOH ([3]; 0.25% in lotion): 61.0%
- protection of skin lipids against UVR-induced peroxidation (FIG. 1) ([3]; result in words, FIG. 1): protects skin lipids in a dose dependant manner

SMILES: CC(=O)N[C@@H](CS)C(=O)O [n-Acetyl cysteine]
- ARU (antioxidant reducing units) ([1]; level 0.1% in methanol): 9.9 ARU
